Test [1] addresses T1, Muscarinic acetylcholine receptor (Rattus norvegicus) (UniProt P08482+P08483+P08485+P08911+P10980). Put plainly: Binding affinity towards muscarinic receptor using [3H]quinuclidinyl benzilate (QNB) to label antagonist sites in membrane preparations from rat neocortex at 100 nM.
Test [2] addresses T1, Muscarinic acetylcholine receptor (Rattus norvegicus). Description: Binding affinity towards muscarinic receptor using [3H]cis-methyldioxolane (CMD) to label agonist sites in membrane preparations from rat neocortex at 1 uM. It counts as tissue-based.
For test [3], the target named is Muscarinic acetylcholine receptor. Description: Binding affinity towards muscarinic receptor using [3H]cis-methyldioxolane (CMD) to label agonist sites in membrane preparations from rat neocortex. It is filed as tissue-based.
The target in test [4] is T1, Muscarinic acetylcholine receptor (Rattus norvegicus). Description: Ratio of QNB/CMD binding affinities to predict agonistic efficacy at muscarinic receptor. It counts as protein assay.
For test [5], the target named is Muscarinic acetylcholine receptor. Put plainly: Binding affinity towards muscarinic receptor using [3H]quinuclidinyl benzilate (QNB) to label antagonist sites in membrane preparations from rat neocortex.
Test [6] concerns the target T1, Muscarinic acetylcholine receptor (Rattus norvegicus). Put plainly: Binding affinity towards muscarinic receptor using [3H]cis-methyldioxolane (CMD) to label agonist sites in membrane preparations from rat neocortex at 100 nM. It counts as tissue-based.
In test [7] the target is T2, Muscarinic acetylcholine receptor M2 (Homo sapiens) (UniProt P08172).
T2 sequence (whole entry): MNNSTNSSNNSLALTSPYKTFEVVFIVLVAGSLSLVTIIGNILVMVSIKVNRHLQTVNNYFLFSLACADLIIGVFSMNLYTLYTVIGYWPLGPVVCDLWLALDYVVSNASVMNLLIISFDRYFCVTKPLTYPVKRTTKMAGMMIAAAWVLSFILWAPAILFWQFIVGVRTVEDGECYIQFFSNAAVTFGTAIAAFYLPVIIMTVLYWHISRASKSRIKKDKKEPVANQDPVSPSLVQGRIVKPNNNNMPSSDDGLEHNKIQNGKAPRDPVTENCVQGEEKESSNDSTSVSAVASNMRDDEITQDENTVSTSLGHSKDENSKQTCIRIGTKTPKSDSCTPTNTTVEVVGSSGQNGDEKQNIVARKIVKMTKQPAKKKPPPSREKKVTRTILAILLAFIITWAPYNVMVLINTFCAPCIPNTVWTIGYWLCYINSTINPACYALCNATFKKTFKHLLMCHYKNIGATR
Put plainly: Inhibitory activity against forskolin-stimulated accumulation of cyclic adenosine monophosphate (cAMP) in CHO cells expressing human m2 receptor (max. concentration. 1 mM). It counts as functional, cell-based.

Test [8] concerns the target T3, Muscarinic acetylcholine receptor M4 (Homo sapiens) (UniProt P08173).
T3 sequence (whole entry): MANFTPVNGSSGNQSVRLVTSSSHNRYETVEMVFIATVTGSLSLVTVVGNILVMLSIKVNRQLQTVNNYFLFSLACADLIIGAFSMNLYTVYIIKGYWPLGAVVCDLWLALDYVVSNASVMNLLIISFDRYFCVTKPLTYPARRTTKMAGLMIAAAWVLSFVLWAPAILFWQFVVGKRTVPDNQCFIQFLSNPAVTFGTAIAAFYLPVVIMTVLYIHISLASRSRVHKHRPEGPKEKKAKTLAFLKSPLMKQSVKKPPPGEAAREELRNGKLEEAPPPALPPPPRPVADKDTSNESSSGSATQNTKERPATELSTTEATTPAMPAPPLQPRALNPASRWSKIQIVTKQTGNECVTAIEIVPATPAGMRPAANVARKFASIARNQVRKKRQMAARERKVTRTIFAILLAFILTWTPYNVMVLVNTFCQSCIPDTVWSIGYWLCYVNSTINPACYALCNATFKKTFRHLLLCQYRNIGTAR
Description: Inhibitory activity against forskolin-stimulated accumulation of cyclic adenosine monophosphate (cAMP) in CHO cells expressing human m4 receptor (max. concentration. 1 mM). It counts as functional, cell-based.

The target of test [9] is T4, Muscarinic acetylcholine receptor M5 (Homo sapiens) (UniProt P08912).
T4 sequence (whole entry): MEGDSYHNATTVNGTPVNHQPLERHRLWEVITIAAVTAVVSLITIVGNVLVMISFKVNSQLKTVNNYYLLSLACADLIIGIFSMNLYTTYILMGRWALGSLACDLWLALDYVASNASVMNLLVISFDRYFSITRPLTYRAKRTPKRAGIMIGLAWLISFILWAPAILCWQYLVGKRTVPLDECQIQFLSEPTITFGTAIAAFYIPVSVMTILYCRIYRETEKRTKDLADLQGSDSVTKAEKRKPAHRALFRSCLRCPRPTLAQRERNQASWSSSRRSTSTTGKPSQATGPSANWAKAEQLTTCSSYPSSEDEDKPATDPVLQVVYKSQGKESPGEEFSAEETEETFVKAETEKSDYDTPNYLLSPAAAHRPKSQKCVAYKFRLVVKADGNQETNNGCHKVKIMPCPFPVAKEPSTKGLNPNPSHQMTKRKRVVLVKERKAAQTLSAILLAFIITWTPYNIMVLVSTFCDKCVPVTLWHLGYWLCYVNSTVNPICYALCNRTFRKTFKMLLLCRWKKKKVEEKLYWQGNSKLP
Put plainly: Ability to stimulate inositol phosphate(PI) accumulation in CHO cells expressing human m5 receptor (max. concentration. 100 uM). It is filed as functional, cell-based.

As for `C(#Cc1ccc2c(c1)OCCO2)CO/N=C1\CN2CCC1C2` (stereo not given), the inhibition in test [1] came to 0%; in test [2], 39%.

For `Clc1cc(Cl)cc(C#CCO/N=C2\CN3CCC2C3)c1` (stereo not given), the inhibition stood at 18% in test [1] and 53% in [2].

Turning to `COc1ccccc1C#CCO/N=C1\CN2CCC1C2` (stereo not given), the IC50 is 219 nM in [3] and 17658 nM in [5]. The Ratio in [4] is 81.

For the compound `FC(F)(F)c1cc(C#CCO/N=C2\CN3CCC2C3)cc(C(F)(F)F)c1` (stereo not given), the results for the inhibition in test [1] and in [2] were 18% and 55%, respectively.

For `COc1ccc(C#CCO/N=C2\CN3CCC2C3)cc1` (stereo not given), the half-maximal inhibitory concentration (IC50) in test [3] was determined as 110 nM; in test [5] it was 13101 nM. Further, the Ratio in test [4] was 119.

Turning to `Fc1cccc(C#CCO/N=C2\CN3CCC2C3)c1` (stereo not given), the IC50 was determined as 37 nM in [3] and 4925 nM in test [5]. Also, in test [4], the Ratio was 132.

As to `Cc1cccc(C#CCO/N=C2\CN3CCC2C3)c1` (stereo not given), the 50% inhibitory concentration (IC50) in test [3] worked out at 28 nM; in test [5] it was 5195 nM. Besides, the Ratio in [4] is 186.

As to `Clc1ccccc1C#CCO/N=C1\CN2CCC1C2` (stereo not given), the IC50 in test [3] came to 12 nM; in test [5] it was 1305 nM. In addition, in [4], the Ratio is 107.

Turning to `Cc1ccccc1C#CCO/N=C1\CN2CCC1C2` (stereo not given), the inhibition came to 56% in test [1] and 82% in test [6].

As for `O=[N+]([O-])c1cccc(C#CCO/N=C2\CN3CCC2C3)c1` (stereo not given), the IC50 in [3] was 28 nM; in test [5], 6399 nM. For the same compound, the Ratio in [4] was 226.

As for `C(#Cc1ccc2c(c1)OCO2)CO/N=C1\CN2CCC1C2` (stereo not given), the IC50 in [3] is on record as 23 nM; in [5] it was 2547 nM. Further, the Ratio in test [4] was 110.

On to `C[N+](C)(C)CCOC(N)=O`, for which the inhibition turned out to be 58% in test [7] and 60% in test [8]. This compound also gave a PI in test [9] of 100%.

As to `Clc1ccc(C#CCO/N=C2\CN3CCC2C3)cc1` (stereo not given), the IC50 in [3] was determined as 53 nM; in test [5] it was 6300 nM. For the same compound, in [4], the Ratio is 119.

Turning to `Fc1ccc(C#CCO/N=C2\CN3CCC2C3)cc1` (stereo not given), the IC50 was 30 nM in [3] and 6092 nM in test [5]. Also, in [4], the Ratio is 204.

On to `Fc1ccccc1C#CCO/N=C1\CN2CCC1C2` (stereo not given), for which the values for the IC50 in test [3] and in test [5] were 28 nM and 4443 nM, respectively. Moreover, the Ratio in [4] is 159.

Take `Clc1cccc(C#CCO/N=C2\CN3CCC2C3)c1` (stereo not given): the half-inhibitory concentration (IC50) in test [3] amounted to 19 nM; in [5], 3882 nM. Moreover, the Ratio in test [4] is 202.

As to `COc1cccc(C#CCO/N=C2\CN3CCC2C3)c1` (stereo not given), the IC50 came to 28 nM in test [3] and 6927 nM in test [5]. Besides, the inhibition in [7] and in test [8] was 0% throughout. Further, the Ratio in test [4] was 250. The compound also came in with a PI in test [9] of 11%.

In the case of `Cc1ccc(C#CCO/N=C2\CN3CCC2C3)cc1` (stereo not given), the half-maximal inhibitory concentration (IC50) in test [3] was 89 nM; in [5], 11089 nM. The Ratio in [4] was 125.

`COc1ccc(C#CCO/N=C2\CN3CCC2C3)cc1OC` (stereo not given): the IC50 in test [3] turned out to be 140 nM; in test [5] it was 42449 nM. Also, the Ratio in [4] is 303.

Consider `C(#Cc1ccccc1)CO/N=C1\CN2CCC1C2` (stereo not given), for which the IC50 was found to be 46 nM in test [3] and 5012 nM in test [5]. Further, the inhibition in test [7] and in test [8] was 0% each time. Also, the Ratio in test [4] was 109. Also, the PI in [9] turned out to be 1%.

Regarding `FC(F)(F)c1cccc(C#CCO/N=C2\CN3CCC2C3)c1` (stereo not given), the figures for the 50% inhibitory concentration (IC50) in test [3] and in test [5] were 32 nM and 4237 nM, respectively. Besides, in [4], the Ratio was 134.
